Paper PMC3271384 (Molecular Genetics and Metabolism, 2012)
Residue numbers refer to the chain shown, from its start.

Legend:
[1] = biological target: T1, AGT-Ma (Homo sapiens, UniProt P21549, S158L); experiment: CD signal at […] nm titration of apoenzyme; assay type: binding
T1 sequence (P21549 1-392 S158L): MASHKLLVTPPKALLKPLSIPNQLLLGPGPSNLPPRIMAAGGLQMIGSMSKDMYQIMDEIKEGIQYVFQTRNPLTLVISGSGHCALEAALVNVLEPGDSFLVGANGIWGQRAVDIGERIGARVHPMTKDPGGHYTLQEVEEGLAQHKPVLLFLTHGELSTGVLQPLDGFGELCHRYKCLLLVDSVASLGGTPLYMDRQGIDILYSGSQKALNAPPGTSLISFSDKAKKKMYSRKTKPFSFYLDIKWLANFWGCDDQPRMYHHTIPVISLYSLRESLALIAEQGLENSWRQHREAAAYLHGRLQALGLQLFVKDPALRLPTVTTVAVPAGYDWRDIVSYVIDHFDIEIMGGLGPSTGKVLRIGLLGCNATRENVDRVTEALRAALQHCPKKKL

[2] = biological target: T2, AGT-Mi (Homo sapiens, UniProt P21549, G161S/I340M/P11L); experiment: quenching of intrinsic fluorescence of apoenzyme; assay type: binding
T2 sequence (P21549 1-392 P11L/G161S/I340M): T1 sequence (P21549 1-392 S158L) with P11L, L158S, G161S, I340M

Kd [1]: 272 ± 47 µM
Kd [2]: 0.46 ± 0.07 µM
SMILES: Cc1ncc(COP(=O)(O)O)c(C=O)c1O [PLP]
